Experimental data from article PMC2841647 (PLoS ONE, 2010).

What was measured:
Assay type in all cases: in vivo, mouse
mice [1] = experiment: Open field
Experimental: Mice were treated as described above before being subjected to behavioral studies. Predictive estimation for anxiolytic properties of tat-cyclotraxin-B was assessed using open field and elevated plus-maze (EPM). Antidepressant-like action of tat-cyclotraxin-B was assessed with the forced-swim test (FST). Effects of acute treatment with tat-cyclotraxin-B on spontaneous locomotion, exploration and reactivity to a novel open field was assessed in plexiglas activity chambers (Med Associates; 45×45×31 cm). Mice were placed into the center of the open field, and activity was recorded for 30 min. Testing took place under bright ambient light conditions to increase the anxiety component of the center areas of the field (defined as the central 15×15 cm portion). Mice subjected to EPM received a double 90-interval i.v. injection of tat-cyclotraxin-B or saline buffer before being placed on the platform of the EPM and assessed for 5 min (26×5×36 cm). The diazepam control group consisted of saline buffer double-treated mice that further received a 30-min i.p. injection of diazepam (1 mg/kg). Mice were assessed for number of entries and amount of time spent in open versus closed arms. […] The total time of swimming, the number of climbing attempts and the time of immobility was recorded during the last 4 min of the session, after 2 min of habituation. […] Behaviors were recorded on videotape and scored blind.

mice [2] = experiment: Forced swim test (FST); details: acute treatment
Experimental: (§1) Mice were treated as described above before being subjected to behavioral studies. Predictive estimation for anxiolytic properties of tat-cyclotraxin-B was assessed using open field and elevated plus-maze (EPM). Antidepressant-like action of tat-cyclotraxin-B was assessed with the forced-swim test (FST). Effects of acute treatment with tat-cyclotraxin-B on spontaneous locomotion, exploration and reactivity to a novel open field was assessed in plexiglas activity chambers (Med Associates; 45×45×31 cm). Mice were placed into the center of the open field, and activity was recorded for 30 min. Testing took place under bright ambient light conditions to increase the anxiety component of the center areas of the field (defined as the central 15×15 cm portion). Mice subjected to EPM received a double 90-interval i.v. injection of tat-cyclotraxin-B or saline buffer before being placed on the platform of the EPM and assessed for 5 min (26×5×36 cm). The diazepam control group consisted of saline buffer double-treated mice that further received a 30-min i.p. injection of diazepam (1 mg/kg). Mice were assessed for number of entries and amount of time spent in open versus closed arms. The FST procedure was applied to treated mice as described by Porsolt et al. (see ref. [60]). Mice were dropped individually into glass cylinder (height, 25 cm; diameter, 10 cm) containing 10 cm water height, maintained at 23–25°C. Animals were tested for a total of 6 min. The total time of swimming, the number of climbing attempts and the time of immobility was recorded during the last 4 min of the session, after 2 min of habituation. The paroxetine control group consisted of saline buffer double-treated mice that further received a 30-min i.p. injection of paroxetine (2 mg/kg). Behaviors were recorded on videotape and scored blind.

mice [3] = experiment: Elevated plus-maze (EPM); details: vs saline
Experimental: as §1

YGRKKRRQRRRCNPMGYTKEGC [tat-cyclotraxin-B]
locomotor activity in open field (mice [1]; 30 min): did not show any alterations
time in the center compartment of open field (mice [1]; compared to saline controls): significantly more time
FST swimming capabilities (mice [2]): not affected
FST climbing attempts (mice [2]; vs saline): not observed
FST time of immobility (mice [2]; vs saline): not observed
EPM number of entries in open arms (mice [3]): significantly increased
EPM time spent in open arms (mice [3]): significantly increased
